Results published in US8889671B2, “Compounds and methods for treating bacterial infections” (AstraZeneca AB, priority 2013, dated 2014).
In brackets after ≈: the same amount, converted by molar mass. Where two headings read alike, the source gives them in different places.

What was measured:
Staphylococcus aureus = test: Susceptibility testing (MIC) Assay 1, broth microdilution; type: cell-based; conditions: Staphylococcus aureus
Streptococcus pneumoniae = test: as above; type: cell-based
Streptococcus pyogenes = test: as above; type: cell-based; conditions: Streptococcus pyogenes, Streptococcus pyrgenes, in vivo strain; read-out: Spy MIC
Escherichia coli = test: Susceptibility testing (MIC) Assay 2, broth microdilution; type: cell-based; conditions: K12, read-out: Eco MIC
Haemophilus influenzae = test: as above; type: cell-based; conditions: ATCC51907, Haemophilus influenzae, ATCC 51907, in vivo strain, read-out: Hin MIC
Klebsiella pneumoniae = test: as above; type: cell-based; conditions: clinical isolate, mucoid, read-out: Kpn MIC
Pseudomonas aeruginosa = test: as above; type: cell-based; conditions: PAO1, read-out: Pae MIC
[1] = target: Escherichia coli DNA gyrase A/B tetramer (Escherichia coli (strain K12), UniProt P0AES4+P0AES6); test: DNA gyrase supercoiling activity fluorescence polarisation assay; type: biochemical; conditions: Eco Gyr FP Mean IC50, E. coli DNA gyrase supercoiling, 0.3 mM ATP
Procedure, shortened: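 IC50 derived by nonlinear regression from BODIPY-FL fluorescence anisotropy, read 60 min after quenching with labelled triplex-forming probe (pH 3.5). Reaction: 5 nM gyrase tetramer, 130 micrograms/mL relaxed plasmid, 0.3 mM ATP, 4 mM MgCl2, pH 7.5, typically 30 min at ambient temperature, 5-10 compound concentrations.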

[2] = Staphylococcus aureus in vivo strain, MSQS, read-out: Sau(d) MIC
[3] = in vivo strain, MRQR, read-out: Sau(e) MIC
[4] = in vivo strain (footnote b), read-out: Spn(b) MIC
[5] = in vivo strain (footnote c), read-out: Spn(c) MIC

Row | Structure (SMILES) | MIC (Staphylococcus aureus; [2]) [µM] | MIC (Staphylococcus aureus; [3]) [µM] | MIC (Staphylococcus aureus; serum, read-out: Sau(f) MIC) [µM] | MIC (Streptococcus pneumoniae; [4]) [µM] | MIC (Streptococcus pneumoniae; [5]) [µM] | MIC (Streptococcus pyogenes) [µM] | MIC (Escherichia coli) [µM] | MIC (Haemophilus influenzae) [µM] | MIC (Klebsiella pneumoniae) [µM] | MIC (Pseudomonas aeruginosa) [µM] | IC50 [1] [nM]
1 | C[C@@H]1CN2c3c(cc4c(N5C(=O)OC[C@@H]5C(F)F)noc4c3F)CC3(C(=O)NC(=O)NC3=O)[C@H]2[C@H](C)O1 [Example 51] | 0.28 (≈ 0.147 µg/mL) | 0.55 (≈ 0.288 µg/mL) | 0.78 (≈ 0.408 µg/mL) | 0.78 (≈ 0.408 µg/mL) | 0.78 (≈ 0.408 µg/mL) | 0.55 (≈ 0.288 µg/mL) | 12 (≈ 6.28 µg/mL) | 0.39 (≈ 0.204 µg/mL) | 100 (≈ 52.3 µg/mL) | > 200 | 430
2 | C[C@@H]1CN2c3c(cc4c(N5C(=O)OC[C@@H]5C5CC5)noc4c3F)CC3(C(=O)NC(=O)NC3=O)[C@H]2[C@H](C)O1 [Example 52] | 0.78 (≈ 0.401 µg/mL) | 1.6 (≈ 0.822 µg/mL) | 3.1 (≈ 1.59 µg/mL) | 1.6 (≈ 0.822 µg/mL) | 1.6 (≈ 0.822 µg/mL) | 0.78 (≈ 0.401 µg/mL) | 25 (≈ 12.8 µg/mL) | 0.78 (≈ 0.401 µg/mL) | 200 (≈ 103 µg/mL) | > 200 | 900
3 | C[C@@H]1CN2c3c(cc4c(N5C[C@H](c6ccccn6)OC5=O)noc4c3F)CC3(C(=O)NC(=O)NC3=O)[C@H]2[C@H](C)O1 [Example 53, (2R,4S,4aS)-11-Fluoro-2,4-dimethyl-8-((R)-2-oxo-5-(pyridin-2-yl)oxazolidin-3-yl)-2,4,4a,6-tetrahydro-1H,1′H-spiro[isoxazolo[4,5-g][1,4]oxazino[4,3-a]quinoline-5,5′-pyrimidine]-2′,4′,6′(3′H)-trione] | 0.098 (≈ 0.0539 µg/mL) | 0.39 (≈ 0.215 µg/mL) | 0.55 (≈ 0.303 µg/mL) | 0.39 (≈ 0.215 µg/mL) | 0.55 (≈ 0.303 µg/mL) | 0.464 (≈ 0.255 µg/mL) | 35 (≈ 19.3 µg/mL) | 1.1 (≈ 0.606 µg/mL) | > 200 | > 200 | 380
4 | C[C@@H]1CN2c3c(cc4c(N5C[C@@H](c6ccccn6)OC5=O)noc4c3F)CC3(C(=O)NC(=O)NC3=O)[C@H]2[C@H](C)O1 [Example 54, (2R,4S,4aS)-11-fluoro-2,4-dimethyl-8-((S)-2-oxo-5-(pyridin-2-yl)oxazolidin-3-yl)-2,4,4a,6-tetrahydro-1H,1′H-spiro[isoxazolo[4,5-g][1,4]oxazino[4,3-a]quinoline-5,5′-pyrimidine]-2′,4′,6′(3′H)-trione] | 0.39 (≈ 0.215 µg/mL) | 0.78 (≈ 0.429 µg/mL) | 1.6 (≈ 0.881 µg/mL) | 0.78 (≈ 0.429 µg/mL) | 0.78 (≈ 0.429 µg/mL) | 0.78 (≈ 0.429 µg/mL) | 100 (≈ 55.1 µg/mL) | 3.1 (≈ 1.71 µg/mL) | > 200 | > 200 | 940
5 | C[C@@H]1CN2c3c(cc4c(N5C(=O)OC[C@H]5c5ccccn5)noc4c3F)CC3(C(=O)NC(=O)NC3=O)[C@H]2[C@H](C)O1 [Example 55, (2R,4S,4aS)-11-Fluoro-2,4-dimethyl-8-((R)-2-oxo-4-(pyridin-2-yl)oxazolidin-3-yl)-2,4,4a,6-tetrahydro-1H,1′H-spiro[isoxazolo[4,5-g][1,4]oxazino[4,3-a]quinoline-5,5′-pyrimidine]-2′,4′,6′(3′H)-trione] | 0.78 (≈ 0.429 µg/mL) | 1.6 (≈ 0.881 µg/mL) | 1.6 (≈ 0.881 µg/mL) | 0.78 (≈ 0.429 µg/mL) | 0.78 (≈ 0.429 µg/mL) | 0.78 (≈ 0.429 µg/mL) | 50 (≈ 27.5 µg/mL) | 0.39 (≈ 0.215 µg/mL) | > 200 | > 200 | 150
6 | C[C@@H]1CN2c3c(cc4c(N5C(=O)OC[C@@H]5c5ccccn5)noc4c3F)CC3(C(=O)NC(=O)NC3=O)[C@H]2[C@H](C)O1 [Example 56, (2R,4S,4aS)-11-fluoro-2,4-dimethyl-8-((S)-2-oxo-4-(pyridin-2-yl)oxazolidin-3-yl)-2,4,4a,6-tetrahydro-1H,1′H-spiro[isoxazolo[4,5-g][1,4]oxazino[4,3-a]quinoline-5,5′-pyrimidine]-2′,4′,6′(3′H)-trione] | 3.1 (≈ 1.71 µg/mL) | 6.2 (≈ 3.41 µg/mL) | 25 (≈ 13.8 µg/mL) | 6.2 (≈ 3.41 µg/mL) | 6.2 (≈ 3.41 µg/mL) | 3.1 (≈ 1.71 µg/mL) | > 200 | 3.1 (≈ 1.71 µg/mL) | > 200 | > 200 | 1900
7 | C[C@@H]1CN2c3c(cc4c(N5C(=O)OC[C@H]5c5ccncc5)noc4c3F)CC3(C(=O)NC(=O)NC3=O)[C@H]2[C@H](C)O1 [Example 57, (2R,4S,4aS)-11-Fluoro-2,4-dimethyl-8-((R)-2-oxo-4-(pyridin-4-yl)oxazolidin-3-yl)-2,4,4a,6-tetrahydro-1H,1′H-spiro[isoxazolo[4,5-g][1,4]oxazino[4,3-a]quinoline-5,5′-pyrimidine]-2′,4′,6′(3′H)-trione] | 1.6 (≈ 0.881 µg/mL) | 6.2 (≈ 3.41 µg/mL) | 3.1 (≈ 1.71 µg/mL) | 0.78 (≈ 0.429 µg/mL) | 1.6 (≈ 0.881 µg/mL) | 0.78 (≈ 0.429 µg/mL) | 100 (≈ 55.1 µg/mL) | 0.39 (≈ 0.215 µg/mL) | > 200 | > 200 | 760
